Test results taken from ChEMBL document CHEMBL1135798, “Structure-activity relationships of the antimalarial agent artemisinin. 6. The development of predictive in vitro potency models using CoMFA and HQSAR methodologies” (2002).

tested on: Plasmodium falciparum; test: Antimalarial activity against chloroquine-resistant, mefloquine-sensitive Plasmodium falciparum W2; assay type: functional

| SMILES | Log RA |
| --- | --- |
| CCCC[C@H]1C(=O)O[C@@H]2O[C@@]3(CCCc4ccc(Cl)cc4)CC[C@H]4[C@H](C)CC[C@@H]1[C@@]24OO3 | -0.28 |
| C[C@@H]1CCC2[C@@H](C)C(=O)OC3OC(C)(C)OO[C@@]32C1 (some centres undefined) | -0.15 |
| O=S(=O)(c1ccccc1)N1C[C@]2(c3ccccc3)CC[C@@](c3ccccc3)(C1)OO2 | -2.26 |
| C[C@@H]1CCC2[C@@H](C)C(=O)OC3OC(C)(C)OO[C@@]32[C@H]1C (some centres undefined) | -0.86 |
| CCOC(=O)[C@H](O[C@H]1O[C@@H]2O[C@@]3(C)CC[C@H]4[C@H](C)CC[C@@H]([C@H]1C)[C@@]24OO3)c1ccccc1 | 0.87 |
| CCOC(=O)[C@@H](O[C@H]1O[C@@H]2O[C@@]3(C)CC[C@H]4[C@H](C)CC[C@@H]([C@H]1C)[C@@]24OO3)c1ccccc1 | 1.25 |
| CCC[C@H](Cc1ccccc1)OC1O[C@@H]2O[C@@]3(C)CC[C@H]4[C@H](C)CC[C@@H]([C@H]1C)[C@@]24OO3 (some centres undefined) | -0.09 |
| CO[C@H]1O[C@@]2(C)CC[C@H]3CCC[C@@H](CCOCc4cc[n+](C)cc4)[C@]31OO2 | -0.9 |
| CC[C@H]1C(=O)O[C@@H]2O[C@@]3(C)CC[C@H]4[C@H](C)CC[C@@H]1[C@@]24OO3 | 1.4 |
| C=CC[C@H]1C(=O)O[C@@H]2O[C@@]3(C)CC[C@H]4[C@H](C)CC[C@@H]1[C@@]24OO3 | -0.1 |
| CCCC[C@H]1C(=O)O[C@@H]2O[C@@]3(C)CC[C@H]4[C@H](C)CC[C@@H]1[C@@]24OO3 | 0.17 |
| C[C@@H]1CC[C@H]2[C@@H](CCCCc3ccccc3)C(=O)O[C@@H]3O[C@@]4(C)CC[C@@H]1[C@]32OO4 | 0.63 |
| CCCCC[C@H]1CO[C@@H]2O[C@@]3(C)CC[C@H]4[C@H](C)CC[C@@H]1[C@@]24OO3 | 0.16 |
| CCOC(=O)CC[C@@]12CC[C@H]3[C@H](C)CC[C@H]4CCO[C@H](O1)[C@]43OO2 | 0.7 |
| CCC[C@@]12CC[C@H]3[C@H](C)CC[C@H]4CCO[C@H](O1)[C@]43OO2 | 0.84 |
| CCCC[C@@]12CC[C@H]3[C@H](C)CC[C@H]4CCO[C@H](O1)[C@]43OO2 | 0.75 |
| CC(C)C[C@@]12CC[C@H]3[C@H](C)CC[C@H]4CCO[C@H](O1)[C@]43OO2 | 0.4 |
| CO[C@H]1O[C@]2(C)OO[C@]13[C@H](CCOCc1ccccc1)CCC[C@@H]3CC2(C)C | -1.8 |
| CC1C(=O)O[C@@H]2C[C@@]3(C)CC[C@H]4[C@H](C)CC[C@@H]1[C@@]24OO3 (some centres undefined) | -0.96 |
| C[C@@H]1CC[C@H]2[C@@H](C)CO[C@@H]3O[C@@]4(C)CC[C@@H]1[C@]32OO4 | 0.75 |
| CC1=CO[C@@H]2O[C@@]3(C)CC[C@H]4[C@H](C)CC[C@@H]1[C@@]24OO3 | 0.78 |
| CO[C@H]1O[C@]2(C)OO[C@]13[C@H](CCO)CCC[C@@H]3C[C@H]2C | -1.8 |
| CCC[C@@]12CC[C@H]3[C@H](C)CC[C@H]4CC(=O)O[C@H](O1)[C@]43OO2 | 0.83 |

| SMILES | Log RA |
| --- | --- |
| COc1ccc([C@@]23CCC[C@](c4ccc(OC)cc4)(CC2)OO3)cc1 | -0.67 |
| CCCC[C@H]1C(=O)O[C@@H]2O[C@@]3(CCCC)CC[C@H]4[C@H](C)CC[C@@H]1[C@@]24OO3 | -0.48 |
| c1ccc([C@]23CC[C@@](c4ccccc4)(COC2)OO3)cc1 | -2.26 |
| C=C/N=N/[C@H]1C(=O)O[C@@H]2O[C@]3(C)CC[C@H]4[C@H](C)CC[C@@H]1[C@@]24OO3 | -2.7 |
| CCOC(=O)COC1O[C@@H]2O[C@@]3(C)CC[C@H]4[C@H](C)CC[C@@H]([C@H]1C)[C@@]24OO3 (some centres undefined) | 0.52 |
| C[C@@]12CC[C@H]3CCC[C@H]4CC(=O)O[C@H](O1)[C@@]34OO2 | -0.36 |
| CCO[C@H]1O[C@@H]2O[C@@]3(C)CC[C@H]4C(C)[C@@H](O)C[C@@H]([C@H]1C)[C@@]24OO3 (some centres undefined) | 0.34 |
| CC(C)C[C@@]12CC[C@H]3[C@H](C)CC[C@H]4CCO[C@H](O1)[C@]43O2 | -4 |
| C[C@@H]1CC[C@H]2[C@@H](C)C(=O)N[C@@H]3O[C@@]4(C)CC[C@@H]1[C@]32OO4 | 0 |
| C[C@@H]1CC[C@H]2CC(=O)N(C)[C@@H]3O[C@@]4(C)CC[C@@H]1[C@@]23OO4 | 0.7 |
| COC(=O)CCCOC1O[C@@H]2O[C@@]3(C)CC[C@H]4[C@H](C)CC[C@@H]([C@H]1C)[C@@]24OO3 (some centres undefined) | -0.03 |
| CCC[C@H]1C(OCC)O[C@@H]2O[C@@]3(C)CC[C@H]4[C@H](C)CC[C@@H]1[C@@]24OO3 (some centres undefined) | -0.04 |
| CCCCCC[C@H]1C(=O)O[C@@H]2O[C@@]3(C)CC[C@H]4[C@H](C)CC[C@@H]1[C@@]24OO3 | 0.86 |
| C[C@@H]1CC[C@H]2C3(CC3)C(=O)O[C@@H]3O[C@@]4(C)CC[C@@H]1[C@]32OO4 | -0.94 |
| CCCCC[C@H]1C(=O)O[C@@H]2O[C@@]3(C)CC[C@H]4[C@H](C)CC[C@@H]1[C@@]24OO3 | 1.02 |
| CC(C)[C@H]1C(=O)O[C@@H]2O[C@@]3(C)CC[C@H]4[C@H](C)CC[C@]1(C)[C@@]24OO3 | -0.04 |
| C[C@@H]1CC[C@@H]2[C@]34OO[C@](C)(CC[C@@H]13)O[C@H]4OC(Nc1nccs1)[C@@]2(C)Br (some centres undefined) | 0.66 |
| CC1CCO[C@@H]2O[C@@]3(C)CC[C@H]4[C@H](C)CC[C@@H]1[C@@]24OO3 (some centres undefined) | -1.2 |
| C/C=C/C[C@@H]1C(=O)O[C@@H]2O[C@@]3(C)CC[C@H]4[C@H](C)CC[C@@H]1[C@@]24OO3 | -0.6 |
| C[C@@H]1CC[C@@H]2[C@]34OO[C@](C)(CC[C@@H]13)O[C@H]4OC(O)[C@]21CO1 (some centres undefined) | -0.57 |
| CO[C@H]1O[C@@]2(C)CC[C@H]3CCC[C@@H](CCOS(=O)(=O)c4cccc5c(N(C)C)cccc45)[C@]31OO2 | 0.03 |
| CCO[C@H]1O[C@@H]2O[C@@]3(C)CC[C@H]4C(C=O)CC[C@@H]([C@H]1C)[C@@]24OO3 (some centres undefined) | 0.21 |
| CCOC(=O)CC[C@@]12CC[C@H]3[C@H](C)CC[C@H]4CCO[C@H](O1)[C@]43O2 | -4 |

| SMILES | Log RA |
| --- | --- |
| CC(C)CC[C@H]1C(=O)O[C@@H]2O[C@@]3(C)CC[C@H]4[C@H](C)CC[C@@H]1[C@@]24OO3 | 0.07 |
| COC(=O)c1ccc(COC2O[C@@H]3O[C@@]4(C)CC[C@H]5[C@H](C)CC[C@@H]([C@H]2C)[C@@]35OO4)cc1 (some centres undefined) | -0.07 |
| C[C@@H]1CC[C@H]2[C@@H](CCCc3ccccc3)C(=O)O[C@@H]3O[C@@]4(C)CC[C@@H]1[C@]32OO4 | 0.78 |
| C[C@@H]1CC[C@H]2[C@@H](C)C(=O)N(Cc3ccccn3)[C@@H]3O[C@@]4(C)CC[C@@H]1[C@@]23O4 | -4 |
| CO[C@@H]1O[C@@]2(C)CC[C@H]3CC(C)(C)CC[C@]31OO2 | -0.47 |
| CC(C)CN1C(=O)[C@H](C)[C@@H]2CC[C@@H](C)[C@@H]3CC[C@]4(C)O[C@@H]1[C@@]32O4 | -4 |
| CCCCCC[C@H]1C(=O)O[C@@H]2O[C@@]3(C)CC[C@H]4[C@H](C)CC[C@@H]1[C@@]24O3 | -4 |
| C=CCOCC[C@@H]1CCC[C@@H]2CC[C@@]3(C)OO[C@]21[C@@H](OC)O3 | 0.4 |
| COCC[C@@H]1CCC[C@@H]2CC[C@@]3(C)OO[C@]21[C@@H](OC)O3 | -0.39 |
| C[C@@H]1CC[C@H]2[C@@H](C)C(OCC3C4CC5CC(C4)CC3C5)O[C@@H]3O[C@@]4(C)CC[C@@H]1[C@]32OO4 (some centres undefined) | 0.28 |
| COC(=O)C[C@@H](C)OC1O[C@@H]2O[C@@]3(C)CC[C@H]4[C@H](C)CC[C@@H]([C@H]1C)[C@@]24OO3 (some centres undefined) | 1.7 |
| C[C@@]12C[C@H]3CCC[C@H]4CC(=O)O[C@H](O1)[C@@]34OO2 | -1.79 |
| CCO[C@H]1O[C@@H]2O[C@@]3(C)CC(O)[C@H]4C(C)CC[C@@H]([C@H]1C)[C@@]24OO3 (some centres undefined) | -1.08 |
| CCCN1C(=O)C[C@@H]2CC[C@@H](C)[C@@H]3CC[C@@]4(C)OO[C@@]23[C@H]1O4 | 0.05 |
| C[C@H]1[C@@H](O[C@H](C)c2ccc(C(=O)O)cc2)O[C@@H]2O[C@@]3(C)CC[C@H]4[C@H](C)CC[C@@H]1[C@@]24OO3 | 0.12 |
| C[C@H]1[C@@H](O[C@@H](C)c2ccc(C(=O)O)cc2)O[C@@H]2O[C@@]3(C)CC[C@H]4[C@H](C)CC[C@@H]1[C@@]24OO3 | 0.21 |
| CC(=O)Oc1ccc([C@@H](C)O[C@H]2O[C@@H]3O[C@@]4(C)CC[C@H]5[C@H](C)CC[C@@H]([C@H]2C)[C@@]35OO4)cc1 | 0.68 |
| CC(C)CN1C(=O)C[C@@H]2CC[C@@H](C)[C@@H]3CC[C@@]4(C)OO[C@@]23[C@H]1O4 | 0.02 |
| CO[C@]1(C)CC[C@H]2[C@H](C)CCC[C@]2(C=O)OO1 | -3.3 |
| COC1O[C@@H]2O[C@@]3(C)CC[C@H]4[C@H](C)CC[C@@H]([C@H]1C)[C@@]24OO3 (some centres undefined) | 0.28 |
| C[C@@H]1CC[C@H]2CC(=O)N(Cc3ccccc3)[C@@H]3O[C@@]4(C)CC[C@@H]1[C@@]23OO4 | 0.34 |
| C[C@@H]1CC[C@@H]2[C@]34OO[C@](C)(CC[C@@H]13)O[C@H]4OC(=O)[C@]21CO1 | -4 |
| C[C@@H]1CC[C@H]2CC(=O)O[C@@H]3O[C@@]4(CCCc5ccc(Cl)cc5)CC[C@@H]1[C@@]23OO4 | 0.1 |
